Experimental data: PMC10453699 (Current Issues in Molecular Biology, 2023)
“And” between values parts separate entries of the source, which are not always exact repeats. Identical values can stand only once. “Also recorded” adds a separate entry of the source. Like-named read-outs stand apart in the source and are kept apart here.

Tests used:
[1] = tested on: human small intestinal epithelial cells (HSEIC); conditions: for cell viability (MTT absorbance at 595 nm): vs vehicle control, doses given with the value; for Long-Term Cytotoxicity / Short-Term Cytotoxicity: MTT in HSEIC, N/A = no cytotoxicity seen; for Long-Term Cytotoxicity: doses cytotoxic after long exposure; for Short-Term Cytotoxicity: doses cytotoxic after short exposure; for cytotoxic effects overall (MTT): over all doses and time points tested (24-96 h), or time not stated
COX-2 = experiment: Western blot of COX-2 protein in TNF-α/IFN-γ-treated HSEIC; format: cell-based, human; conditions: for COX-2 protein levels relative to GAPDH: cotreatment experiments (Figures 7-15), single and combined doses given with the value
IL-6 = format: cell-based, human; conditions: cotreatment experiments (Figures 7-15), single and combined doses given with the value; vs TNF-α/IFN-γ group
[2] = tested on: porcine intestinal epithelial cells; design: method as in PMID 32735667; conditions: pretreatment with 100 μM; cited from earlier work
[3] = tested on: dextran sulfate sodium-induced colitis; design: method as in PMID 34478286; conditions: 20 mg/kg, consumed orally for 17 days; cited from earlier work
[4] = single ligands (Figure 6), vs TNF-α/IFN-γ group, doses given with the value

| SMILES | cell viability (MTT absorbance at 595 nm) ([1]; 48 h exposure) | cell viability (MTT absorbance at 595 nm) ([1]; 72 h exposure) | cell viability (MTT absorbance at 595 nm) ([1]; 96 h exposure) | Long-Term Cytotoxicity [1] [µM] | Short-Term Cytotoxicity [1] [µM] | cytotoxic effects overall (MTT) [1] | COX-2 levels decreased by (COX-2) [×] | Most Effective Dose (COX-2) [µM] | cell viability (MTT absorbance at 595 nm) ([1]; 24 h exposure) | IL-6 protein levels relative to GAPDH (IL-6) | Fold Change of COX-2 (COX-2) [×] | COX-2 protein levels relative to GAPDH (COX-2; vs TNF-α/IFN-γ group) | normalized COX-2 levels (COX-2/GAPDH) (COX-2; [4]) | other results |
| --- | --- | --- | --- | --- | --- | --- | --- | --- | --- | --- | --- | --- | --- | --- |
| COc1cc(/C=C/C(=O)CC(=O)/C=C/c2ccc(O)c(OC)c2)ccc1O [Cur, curcumin] | cytotoxic effects across all doses | cytotoxic effects across all doses | cytotoxic effects across all doses | ≥1 | ≥5 | most substantial and severe decreases in cell viability were observed at 20, 40, and 80 μM | 3.8 | 0.5 | – | – | – | – | – | Long-Term Cytotoxicity ([1]; listed as Curcumin): ≥ 1 µM; Short-Term Cytotoxicity ([1]; listed as Curcumin): ≥ 5 µM; normalized COX-2 levels (COX-2/GAPDH) (COX-2): Psi (40 μM), Cur (0.5 μM), and Eug (50 μM) significantly reduced COX-2 levels without cytotoxic effects; also recorded: significantly reduced normalized COX-2 levels at concentrations of 0.5 (p < 0.0001), 2.5 (p < 0.01), 5, and 10 μM |
| CN(C)CCc1c[nH]c2cccc(OP(=O)(O)O)c12 [Psi, psilocybin] | increased the cell viability at 20 (p < 0.01), 40 (p < 0.001), 80, and 160 μM | – | 80 (p < 0.05) and 160 μM (p < 0.0001) of psilocybin for 96 h significantly increased the cell viability | – | – | – | – | 40 | significantly increased the number of viable cells at doses of 20 (p < 0.001), 40, 80, and 160 μM | 20 μM psilocybin and 10 μM psilocybin combined with 0.5 μM curcumin showing the most significant reductions and the 10 μM psilocybin treatment group, which significantly upregulated the IL-6 levels | −3.8 | effectively reduced COX-2 levels and 40 μM psilocybin all significantly decreased the COX-2 levels | Psi (40 μM), Cur (0.5 μM), and Eug (50 μM) significantly reduced COX-2 levels without cytotoxic effects | normalized COX-2 levels (COX-2/GAPDH) (COX-2; single ligands (Figure 6), vs TNF-α/IFN-γ group, doses given with the value, listed as Psilocybin): significant reductions in the normalized COX-2 levels across all concentrations tested (5, 10, 20, and 40 μM) |
| CC(=O)Oc1cccc2[nH]cc(CCN(C)C)c12 [4-AcO-DMT, 4-Acetoxy-N,N-dimethyltryptamine] | doses of 10, 20, 40, 80, and 160 μM significantly increased the cell viability | 5 (p < 0.01), 10 (p < 0.0001), 20 (p < 0.01), 40, 80, and 100 μM (p < 0.0001) significantly increased the cell viability | all doses significantly increased (p < 0.0001) the cell viability | – | – | – | – | 20 | doses of 10, 20, 40, 80, and 160 μM significantly increased the cell viability | significantly reduced only in the 20 μM of 4-AcO-DMT combined with 25 μM of Eug, 40 μM of 4-AcO-DMT, and 40 μM of 4-AcO-DMT combined with 25 μM of Eug groups; also recorded: IL-6 was upregulated in the 10 μM of 4-AcO-DMT, 25 μM of Eug, 10 μM of 4-AcO-DMT combined with 25 μM of Eug, and 20 μM of 4-AcO-DMT group | −1.5 | only the combination of 20 μM of 4-AcO-DMT with 0.5 μM of Cap and 40 μM of 4-AcO-DMT significantly reduced the COX-2 levels; also recorded: significantly reduced in the 10 μM of 4-AcO-DMT, 25 μM of Eug, 20 μM of 4-AcO-DMT combined with 25 μM of Eug, 40 μM of 4-AcO-DMT, and 40 μM of 4-AcO-DMT combined with 25 μM of Eug groups | significant decrease in the relative COX-2 levels at the concentrations of 10 (p < 0.01), 20 (p < 0.0001), and 40 μM and 5 μM significantly increased relative COX-2 levels | – |
| C=CCc1ccc(O)c(OC)c1 [Eug, eugenol] | exposure to 50 (p < 0.001), 100 (p < 0.001), 200 (p < 0.0001), 400 (p < 0.0001), and 800 μM (p < 0.0001) for 48 h significantly reduced the cell viability | only 200 (p < 0.001), 400 (p < 0.0001), and 800 μM (p < 0.0001) of eugenol significantly reduced the cell viability | all doses reduced the cell viability | ≥10 | ≥10 | demonstrated both short-term and long-term cytotoxic effects | 3.8 | – | 10 (p < 0.01), 100 (p < 0.05), 200 (p < 0.01), 400 (p < 0.001), and 800 (p < 0.0001) μM of eugenol decreased the cell viability | IL-6 was upregulated in the 10 μM of 4-AcO-DMT, 25 μM of Eug, 10 μM of 4-AcO-DMT combined with 25 μM of Eug, and 20 μM of 4-AcO-DMT group | −3.8 | significantly reduced in the 10 μM of 4-AcO-DMT, 25 μM of Eug, 20 μM of 4-AcO-DMT combined with 25 μM of Eug, 40 μM of 4-AcO-DMT, and 40 μM of 4-AcO-DMT combined with 25 μM of Eug groups | Psi (40 μM), Cur (0.5 μM), and Eug (50 μM) significantly reduced COX-2 levels without cytotoxic effects | Long-Term Cytotoxicity ([1]; listed as Eugenol): ≥ 10 µM; Short-Term Cytotoxicity ([1]; listed as Eugenol): ≥ 10 µM; LPS-induced IL-8 and TNF-α transcript levels [2]: significantly suppress the LPS-induced IL-8 and TNF-α transcript levels; Most Effective Dose (COX-2; dose most effective in lowering COX-2 (and IL-6) in TNF-α/IFN-γ-treated HSEIC): 50 µM; normalized COX-2 levels (COX-2/GAPDH) (COX-2; single ligands (Figure 6), vs TNF-α/IFN-γ group, doses given with the value, listed as eugenol): remarkable efficacy in reducing the normalized COX-2 levels at all tested concentrations; pathological scores [3]: reduced the pathological scores |
| O=C(c1ccc(F)cc1)C1CCN(CCn2c(=O)[nH]c3ccccc3c2=O)CC1 [Ket, ketanserin] | – | – | – | – | – | – | – | 1 | – | – | – | – | Only 1 (p < 0.0001) and 10 μM (p < 0.01) of ketanserin significantly lowered COX-2 levels and 20 μM of ketanserin led to a significant increase in the normalized COX-2 levels and higher doses significantly increased COX-2 levels | – |
| COc1cc(CNC(=O)CCCC/C=C/C(C)C)ccc1O [Cap, capsaicin] | 50 μM after 24 h (p < 0.05), 100 μM after 24 and 48 h (p < 0.05), and 200 μM after 24 h (p < 0.01) and 48 h (p < 0.0001) significantly decreased the cell viability | – | – | ≥0.5 | ≥50 | did not demonstrate significant cytotoxicity in either the short- or long-term doses tested | – | 0.5 | 50 μM after 24 h (p < 0.05), 100 μM after 24 and 48 h (p < 0.05), and 200 μM after 24 h (p < 0.01) and 48 h (p < 0.0001) significantly decreased the cell viability | – | −1.6 | effectively reduced COX-2 levels | a reduction in COX-2 levels was observed only at a dose of 0.5 μM; also recorded: both 0.1 and 1 μM showed a trend towards decreased normalized COX-2/GAPDH levels | – |
